Patent US20110104301A1, “METHODS OF REDUCING PAIN AND INFLAMMATION” (Georgetown University, A Congressionally Chartered …, priority 2008, published 2011)

Legend:
[1] = system: mice; test: AITC (mustard oil)-induced ear swelling, neurogenic inflammation during anesthesia; type: in vivo, mouse; conditions: 1.2 MAC
Experimental: Behavioral Experiments and Neurogenic Inflammation. Animal experiments were performed according to National Institutes of Health and institutional guidelines. […] Nocifensive behavior (nose wiping in sawdust bedding) was recorded for 2 min with a video camera and the duration was subsequently measured by a blinded observer. […] Electromyographic (EMG) activity was recorded via platinum electrodes from the semitendinosus muscle in mice anesthetized with urethane (1.3 g/kg) as described in Ando and Watanabe, Br J. Anaesth. […] The EMG signal was recorded by using a low-pass cutoff frequency of 200 Hz and integrated offline by using a 100-ms time window. […] Ear thickness was recorded by using an engineer's micrometer (Mitutoyo Corp.) before mustard-oil application and thereafter every 15 min for 60 min of anesthesia and 60 min of recovery.

[2] = target: T1, TRPV1 (Mus musculus, UniProt Q704Y3); test: Patch-clamp of capsaicin-sensitive sensory neurons (nodose ganglia); type: cell-based
T1 construct: endogenous in cells; host or cells: primary nodose ganglion neurons of adult C57Bl6/J mice
T1 sequence (Q704Y3 whole entry): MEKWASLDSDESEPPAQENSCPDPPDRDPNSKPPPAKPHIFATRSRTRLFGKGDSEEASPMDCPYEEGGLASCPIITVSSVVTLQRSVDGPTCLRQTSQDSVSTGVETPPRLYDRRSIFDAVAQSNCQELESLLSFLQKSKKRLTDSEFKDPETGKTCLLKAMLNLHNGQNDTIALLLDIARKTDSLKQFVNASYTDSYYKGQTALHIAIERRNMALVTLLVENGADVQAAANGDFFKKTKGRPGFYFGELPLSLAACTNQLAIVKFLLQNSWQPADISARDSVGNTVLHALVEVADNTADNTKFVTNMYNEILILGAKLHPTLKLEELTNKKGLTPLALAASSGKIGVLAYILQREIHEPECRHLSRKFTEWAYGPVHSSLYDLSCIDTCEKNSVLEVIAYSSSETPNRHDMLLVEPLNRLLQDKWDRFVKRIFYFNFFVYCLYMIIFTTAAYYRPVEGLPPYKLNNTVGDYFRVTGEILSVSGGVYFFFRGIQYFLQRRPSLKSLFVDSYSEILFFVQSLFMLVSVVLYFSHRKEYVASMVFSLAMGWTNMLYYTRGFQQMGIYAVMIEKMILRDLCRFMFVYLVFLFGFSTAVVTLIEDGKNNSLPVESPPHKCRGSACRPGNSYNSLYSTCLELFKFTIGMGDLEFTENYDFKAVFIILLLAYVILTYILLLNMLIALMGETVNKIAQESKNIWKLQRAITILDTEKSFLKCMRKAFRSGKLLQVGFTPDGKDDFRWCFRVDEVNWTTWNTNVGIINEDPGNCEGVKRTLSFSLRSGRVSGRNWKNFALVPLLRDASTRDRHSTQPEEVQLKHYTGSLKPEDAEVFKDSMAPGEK
Experimental: HEK cell and sensory neuron electrophysiology. HEK 293F cells (Invitrogen) were cultured in DMEM supplemented with 1% non-essential amino acids and 10% fetal calf serum. Cell cultures were maintained at 37° C. with 5% CO2. Cells were transfected with rat TRPV 1 (gift of David Julius), and GFP cDNA using Lipofectamine™ Transfection Reagent (Invitrogen) and used 24-48 h after transfection. Nodose ganglia were obtained from adult mice (C57B16/J and TRPV1-null), cut, digested with collagenase, and cultured in Neurobasal +2% B-27 medium (Invitrogen), 0.1% L-glutamine and 1% penicillin/streptomycin on poly-D lysine-coated glass coverslips at 37° C. in 5% CO2. Neurons were used within 24-36 hr of culture. Whole-cell and single-channel patch clamp recordings were performed using an EPC8 amplifier (HEKA). The current signal was low-pass filtered at 1-3 kHz and sampled at 4 kHz. Currents were further filtered for display purposes. For whole-cell and excised patch recordings the bath solution contained (in mM): 140 NaCl, 4 KCl, 1 MgCl2, 1 EGTA, 10 HEPES, 10 glucose pH 7.3 (290 mOsm). The pipette solution contained (in mM): 140 CsC1, 10 NaCl, 10 HEPES, 5 EGTA, 2 Mg ATP and 0.03 GTP, pH 7.3. The peak amplitudes measured either during the prepulse or the tail current (within 1 ms) were plotted as a function of the test potential and normalized to the maximal current obtained from the following Boltzmann function: […]

[3] = target: T2, mouse TRPA1 (Mus musculus, UniProt Q8BLA8); test: Current-voltage recordings in mTRPA1-expressing HEK293 cells; type: cell-based; conditions: desflurane 1 mM
T2 construct: expressed in transfected cells; host or cells: HEK293
T2 sequence (Q8BLA8 whole entry): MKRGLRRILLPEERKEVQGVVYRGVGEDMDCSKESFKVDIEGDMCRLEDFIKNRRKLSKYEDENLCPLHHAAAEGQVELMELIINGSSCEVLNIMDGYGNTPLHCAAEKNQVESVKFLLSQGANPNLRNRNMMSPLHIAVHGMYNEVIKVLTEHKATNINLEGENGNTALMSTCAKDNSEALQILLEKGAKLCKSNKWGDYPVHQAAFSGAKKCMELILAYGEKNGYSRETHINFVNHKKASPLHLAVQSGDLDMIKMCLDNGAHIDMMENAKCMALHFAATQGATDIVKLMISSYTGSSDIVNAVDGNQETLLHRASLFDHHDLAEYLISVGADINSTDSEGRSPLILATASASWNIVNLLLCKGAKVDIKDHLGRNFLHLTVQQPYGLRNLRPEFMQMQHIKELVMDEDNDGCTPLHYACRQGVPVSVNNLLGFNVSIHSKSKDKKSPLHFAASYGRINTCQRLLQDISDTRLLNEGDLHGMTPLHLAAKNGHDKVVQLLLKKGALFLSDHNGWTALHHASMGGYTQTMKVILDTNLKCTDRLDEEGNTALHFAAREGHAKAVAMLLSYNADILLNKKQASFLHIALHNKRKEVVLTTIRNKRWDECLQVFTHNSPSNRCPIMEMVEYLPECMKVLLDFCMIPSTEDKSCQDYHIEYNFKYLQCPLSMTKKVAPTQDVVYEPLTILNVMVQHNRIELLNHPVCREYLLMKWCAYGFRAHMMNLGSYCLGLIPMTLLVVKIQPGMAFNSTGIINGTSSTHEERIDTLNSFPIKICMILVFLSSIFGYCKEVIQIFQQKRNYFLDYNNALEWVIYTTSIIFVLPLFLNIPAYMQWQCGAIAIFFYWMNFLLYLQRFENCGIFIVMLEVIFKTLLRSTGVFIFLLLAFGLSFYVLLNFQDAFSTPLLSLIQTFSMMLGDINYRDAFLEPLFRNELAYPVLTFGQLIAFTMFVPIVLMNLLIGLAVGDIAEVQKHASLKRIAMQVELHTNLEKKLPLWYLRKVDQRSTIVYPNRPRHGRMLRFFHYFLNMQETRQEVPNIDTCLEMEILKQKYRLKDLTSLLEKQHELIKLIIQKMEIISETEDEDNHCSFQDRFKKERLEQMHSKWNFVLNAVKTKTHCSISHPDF
Experimental: (§1) A genetic approach was used to identify critical sites in TRPA1 and TRPV1 required for activation by general anesthetics. Drosophila TRPA1 is insensitive to desflurane (at concentrations up to 3 mM). […] Note that dTRPA1 is insensitive to AITC. Next, several chimeric TRP proteins containing dTRPA1 (unresponsive to desflurane) and mTRPA1 were tested. For the dTRPA1-mN chimera, the mouse 720 amino acid N-terminus was exchanged for the drosophila N-terminus. The N-terminal domain contains essential binding sites for AITC, and therefore studying this chimera tests an important role for the N-terminus in anesthetic-sensing. […] The mTRPA1-dTM5 construct was then studied, which is the mouse protein containing the fifth transmembrane domain of the drosophila protein.

[4] = target: T3, Drosophila TRPA1 (Drosophila melanogaster, UniProt Q7Z020); test: Current-voltage recordings in dTRPA1-expressing HEK293 cells; type: cell-based; conditions: desflurane at concentrations up to 3 mM
T3 construct: expressed in transfected cells; host or cells: HEK293
T3 sequence (Q7Z020 1-1197): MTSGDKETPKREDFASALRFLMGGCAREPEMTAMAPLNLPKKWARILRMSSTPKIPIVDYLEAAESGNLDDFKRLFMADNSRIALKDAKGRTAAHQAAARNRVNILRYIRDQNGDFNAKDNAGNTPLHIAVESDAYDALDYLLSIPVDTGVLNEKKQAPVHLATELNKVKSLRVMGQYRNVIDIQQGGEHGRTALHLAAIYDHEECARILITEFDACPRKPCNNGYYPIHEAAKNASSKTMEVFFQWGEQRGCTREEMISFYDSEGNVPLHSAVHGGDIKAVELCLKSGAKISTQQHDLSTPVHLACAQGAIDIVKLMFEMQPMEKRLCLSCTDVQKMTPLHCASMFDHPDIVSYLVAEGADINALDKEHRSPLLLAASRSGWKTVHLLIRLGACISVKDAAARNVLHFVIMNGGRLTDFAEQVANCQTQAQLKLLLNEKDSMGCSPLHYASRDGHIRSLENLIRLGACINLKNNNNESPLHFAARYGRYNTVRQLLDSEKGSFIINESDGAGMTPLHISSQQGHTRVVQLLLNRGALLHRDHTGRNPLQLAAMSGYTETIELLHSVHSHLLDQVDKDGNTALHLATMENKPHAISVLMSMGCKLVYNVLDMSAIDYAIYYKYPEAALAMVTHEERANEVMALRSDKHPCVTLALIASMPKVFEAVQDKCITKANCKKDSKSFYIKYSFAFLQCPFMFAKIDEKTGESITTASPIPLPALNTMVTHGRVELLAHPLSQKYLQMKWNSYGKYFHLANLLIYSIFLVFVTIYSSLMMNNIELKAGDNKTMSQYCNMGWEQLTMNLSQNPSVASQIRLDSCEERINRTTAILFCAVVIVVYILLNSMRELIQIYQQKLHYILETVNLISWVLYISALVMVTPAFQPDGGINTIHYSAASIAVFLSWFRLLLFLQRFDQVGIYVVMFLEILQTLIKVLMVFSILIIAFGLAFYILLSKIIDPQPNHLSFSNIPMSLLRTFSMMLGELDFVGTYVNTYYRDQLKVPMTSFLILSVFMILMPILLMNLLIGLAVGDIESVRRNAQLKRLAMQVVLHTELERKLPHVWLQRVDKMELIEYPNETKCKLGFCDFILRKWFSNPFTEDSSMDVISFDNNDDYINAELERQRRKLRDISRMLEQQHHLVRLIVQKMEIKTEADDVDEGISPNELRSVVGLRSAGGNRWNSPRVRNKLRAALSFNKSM
Experimental: as §1

SMILES | AITC-induced ear swelling during anesthesia, compared with sevoflurane ([1]; AITC 0.6%, 15-120 min, n=7, P<0.01) | Swelling in the unpainted ear ([1]; at 90 and 120 min) | Capsaicin-evoked single channel activity ([2]; cell-free outside-out patches, capsaicin 30 nM, isoflurane 0.9 mM) | Single TRPV1 channel activity in neurons after PDBu treatment ([2]; isoflurane 0.9 mM) | Response of sensory neurons under control conditions ([2]; isoflurane 0.9 mM, AITC-insensitive neurons) | Enhancement of capsaicin-evoked whole-cell currents ([2]; isoflurane 0.9 mM, capsaicin 30 nM, n=5) | Response of sensory neurons after BK treatment ([2]; isoflurane 0.9 mM, n=7, P<0.01) | Membrane excitability under current-clamp, co-application with BK ([2]; n=3) | Activation of mouse TRPA1 [3] | Sensitivity of Drosophila TRPA1 [4]
FC(F)OC(Cl)C(F)(F)F (stereo not shown) [isoflurane] | significantly greater swelling | small increase in swelling | increased | activated | negligible responses | approximately 3 fold | marked increase in current | depolarized neurons and initiated sustained spike discharge |  | 
FC(F)OC(F)C(F)(F)F (stereo not shown) [desflurane] |  |  |  |  |  |  |  |  | activates | insensitive
